Measured values published in patent US7148376B2, “Polymorphic forms of nateglinide” (Teva Pharmaceutical Industries Ltd., priority 2002, dated 2006).
Entries after “also recorded” stand apart in the source; their conditions may differ.

Columns and labels:
[1] = Thermal stability: polymorphic form after drying or heating (XRPD); assay type: physicochemical; conditions: for crystal form obtained upon drying: drying by heating under ambient or reduced pressure, generally about 40° C. to about 80° C.
Description: The various crystalline forms are related to each other in that drying of one form may result in a transformation to another form, namely nateglinide Forms A, B, D, E, F, G, H, I, J, K, L, M, N, Q, S, T, V, Z, α, β, δ, γ, ε, θ and Ω. The drying is carried out by heating a sample under ambient or reduced pressure. Generally, a preferred temperature is from about 40° C. to about 80° C., more preferably under reduced pressure. […] The term “stable” as used herein refers to a polymorphic change of less than about 5% by weight, more preferably less than about 2%, particularly for Form δ.
(§1) • X-Ray diffraction was performed on X-Ray powder diffractometer, Scintag®, variable goniometer, Cu-tube, solid state detector. Sample holder: A round standard aluminum sample holder with round zero background quartz plate. • The sample was put on the sample holder and immediately analyzed as is. • Scanning parameters: Range: 2–40 deg 2θ, Continuos Scan, Rate: 3 deg./min. DSC: • DSC821^e Mettler Toledo®, Sample weight: 3–5 mg, Heating rate: 10° C./min, Number of holes in the crucible: 3 TGA: • Mettler TG50®, Sample weight: 7–15 mg, Heating rate: 10° C./min FTIR: • Perkin-Elmer®, Spectrum One FTIR spectrometer, Range: 4000–400 cm−1, no. of scans: 16, resolution: 4.0 cm−1, DRIFT technique.
Sample of nateglinide form U (˜1 g) was introduced into a 6-gram vial and heated over 8.5 h in a 100° C. oil bath. The vial were extracted from the bath.
Sample of nateglinide form U (˜0.5 g) was heated to 120° C. for 1 h in an atmospheric pressure.
Sample of nateglinide form δ (˜0.5 g) was heated to 120° C. for 1 h in an atmospheric pressure.

[2] = Polymorphic stability on storage at room temperature (XRPD); assay type: physicochemical; conditions: storage at room temperature and pressure for about a day
Description: The various crystalline forms are also analyzed by Thermal Gravimetric Analysis (TGA). […] In contrast to the above listed forms, TGA profiles of forms L, P, U, α, δ and σ show no significant weight loss. These polymorphic forms of nateglinide are free of bound solvents, i.e., less than about 2% LOD. Table III lists the solvents used for the preparation for nateglinide solvated forms, as well as LOD values based on TGA analysis.
Storage at room temperature and pressure may also cause a transition of one form to another.
as §1

[3] = Exposure of nateglinide Form H to solvent vapors; assay type: physicochemical; conditions: vapors of water and acetone, room temperature
Description: Some of the crystalline forms are obtained by absorption of solvent vapors. Nateglinide is contacted with vapors of a particular solvent, resulting in absorption of the solvent. Absorption of ethanol results in Form D, methanol in Form O, and DCM in Form Y. Form H was stable in the presence of vapors of water and acetone.
Nateglinide (3.50 g) was added to a polypropylene can and weighed. The can was introduced into a bigger polypropylene container containing a solvent, and stored at room temperature. The can was removed from the container and weighed (Wfinal). The can content was divided into 2 portions. One portion was dried at a temperature of 55° C. and a pressure of 20–30 mmHg to constant weight (±0.01 g).

[4] = cited from earlier work

Compound: CC(C)[C@H]1CC[C@H](C(=O)N[C@H](Cc2ccccc2)C(=O)O)CC1 [Form A, nateglinide]
- crystal form obtained upon drying ([1]; listed as A): convert to Form B
- transition of one form to another on storage ([2]; listed as A): partially converts to Form B

Compound: CC(C)[C@H]1CC[C@H](C(=O)N[C@H](Cc2ccccc2)C(=O)O)CC1 [Form H, nateglinide]
- thermal stability (conversion to another form upon heating) [1]: thermally stable
- stability in the presence of solvent vapors [3]: stable

Compound: CC(C)[C@H]1CC[C@H](C(=O)N[C@H](Cc2ccccc2)C(=O)O)CC1 [Form Ω, nateglinide]
- crystal form after drying at 50° C. in a vacuum oven overnight ([1]; 50° C., vacuum oven, overnight, XRD): mixture of Form omega and Form Z
- crystal form obtained upon drying ([1]; listed as Ω): convert to Form B

Compound: CC(C)[C@H]1CC[C@H](C(=O)N[C@H](Cc2ccccc2)C(=O)O)CC1 [Form B, nateglinide]
- thermal stability (conversion to another form upon heating) [1]: thermally stable

Compound: CC(C)[C@H]1CC[C@H](C(=O)N[C@H](Cc2ccccc2)C(=O)O)CC1 [Form G, nateglinide]
- crystal form obtained upon drying ([1]; listed as G): convert to Form B

Compound: CC(C)[C@H]1CC[C@H](C(=O)N[C@H](Cc2ccccc2)C(=O)O)CC1 [Form β, nateglinide]
- crystal form obtained upon drying ([1]; listed as β): convert to Form B

Compound: CC(C)[C@H]1CC[C@H](C(=O)N[C@H](Cc2ccccc2)C(=O)O)CC1 [Form C, nateglinide]
- crystal form obtained upon drying ([1]; listed as C): convert to Form B

Compound: CC(C)[C@H]1CC[C@H](C(=O)N[C@H](Cc2ccccc2)C(=O)O)CC1 [Form I, nateglinide]
- transition of one form to another on storage ([2]; listed as I): converts to Form L

Compound: CC(C)[C@H]1CC[C@H](C(=O)N[C@H](Cc2ccccc2)C(=O)O)CC1 [nateglinide, (−)-N-(trans-4-isopropylcyclohexanecarbonyl)-D-Phenylalanine]
- solubility in acetonitrile ([4]; acetonitrile): sparingly soluble
- solubility in chloroform ([4]; chloroform): freely soluble
- solubility in ethanol ([4]; ethanol): freely soluble
- solubility in ether ([4]; ether): soluble
- solubility in methanol ([4]; methanol): freely soluble
- solubility in octanol ([4]; octanol): sparingly soluble
- solubility in water ([4]; water): practically insoluble

Compound: CC(C)[C@H]1CC[C@H](C(=O)N[C@H](Cc2ccccc2)C(=O)O)CC1 [Form δ, nateglinide]
- thermal stability (conversion to another form upon heating) [1]: somewhat stable
- crystal form after heating at 120° C. ([1]; 120° C., 1 atmosphere, 1 h, XRPD): Form B
- crystal form obtained upon drying ([1]; listed as δ): convert to Form B
- polymorphic form after drying in a fluidized bed drier ([1]; fluidized bed drier, 4 hours at 60° C.): delta
- polymorph after drying in a stirred reactor ([1]; stirred reactor 7–10 rpm, 60 mmHg vacuum, 60° C., 6 hours): remained delta form

Compound: CC(C)[C@H]1CC[C@H](C(=O)N[C@H](Cc2ccccc2)C(=O)O)CC1 [Form U, nateglinide]
- thermal stability (conversion to another form upon heating) [1]: thermally stable
- crystal form after heating at about 100° C. ([1]; 100° C. oil bath, 8.5 h, XRPD): does not undergo a transition; also recorded: Form U
- crystal form after heating to 120° C. for 1 h ([1]; 120° C., 1 h, atmospheric pressure, XRPD): Form U

Compound: CC(C)[C@H]1CC[C@H](C(=O)N[C@H](Cc2ccccc2)C(=O)O)CC1 [acetonitrile solvate of Form Epsilon, nateglinide]
- crystal form obtained upon drying [1]: Form B

Compound: CC(C)[C@H]1CC[C@H](C(=O)N[C@H](Cc2ccccc2)C(=O)O)CC1 [Form O, nateglinide]
- thermal stability (conversion to another form upon heating) [1]: somewhat stable

Compound: CC(C)[C@H]1CC[C@H](C(=O)N[C@H](Cc2ccccc2)C(=O)O)CC1 [Form Z, nateglinide]
- crystal form obtained upon drying ([1]; listed as Z): convert to Form B

Compound: CC(C)[C@H]1CC[C@H](C(=O)N[C@H](Cc2ccccc2)C(=O)O)CC1 [Form σ, nateglinide]
- thermal stability (conversion to another form upon heating) [1]: thermally stable

Compound: CC(C)[C@H]1CC[C@H](C(=O)N[C@H](Cc2ccccc2)C(=O)O)CC1 [Form α, nateglinide]
- thermal stability (conversion to another form upon heating) [1]: somewhat stable
- crystal form obtained upon drying ([1]; listed as α): convert to Form B

Compound: CC(C)[C@H]1CC[C@H](C(=O)N[C@H](Cc2ccccc2)C(=O)O)CC1 [Form θ, nateglinide]
- crystal form obtained upon drying ([1]; listed as θ): convert to Form B

Compound: CC(C)[C@H]1CC[C@H](C(=O)N[C@H](Cc2ccccc2)C(=O)O)CC1 [Form Y, nateglinide]
- thermal stability (conversion to another form upon heating) [1]: somewhat stable

Compound: CC(C)[C@H]1CC[C@H](C(=O)N[C@H](Cc2ccccc2)C(=O)O)CC1 [Form L, nateglinide]
- thermal stability (conversion to another form upon heating) [1]: thermally stable

Compound: CC(C)[C@H]1CC[C@H](C(=O)N[C@H](Cc2ccccc2)C(=O)O)CC1 [Form J, nateglinide]
- crystal form obtained upon drying ([1]; listed as J): convert to Form B

Compound: CC(C)[C@H]1CC[C@H](C(=O)N[C@H](Cc2ccccc2)C(=O)O)CC1 [Form T, nateglinide]
- crystal form obtained upon drying ([1]; listed as T): convert to Form B; also recorded: mixture of Form B and G
- transition of one form to another on storage ([2]; listed as T): converts to Form E

Compound: CC(C)[C@H]1CC[C@H](C(=O)N[C@H](Cc2ccccc2)C(=O)O)CC1 [nitromethane solvates of Form Epsilon, nateglinide]
- crystal form obtained upon drying [1]: Forms H or P

Compound: CC(C)[C@H]1CC[C@H](C(=O)N[C@H](Cc2ccccc2)C(=O)O)CC1 [Form K, nateglinide]
- crystal form obtained upon drying ([1]; listed as K): convert to Form B

Compound: CC(C)[C@H]1CC[C@H](C(=O)N[C@H](Cc2ccccc2)C(=O)O)CC1 [Form D, nateglinide]
- crystal form obtained upon drying ([1]; listed as D): convert to Form B

Compound: CC(C)[C@H]1CC[C@H](C(=O)N[C@H](Cc2ccccc2)C(=O)O)CC1 [Form Q, nateglinide]
- crystal form obtained upon drying ([1]; listed as Q): convert to Form B
- transition of one form to another on storage ([2]; listed as Q): converts to Form Y (containing chloroform)

Compound: CC(C)[C@H]1CC[C@H](C(=O)N[C@H](Cc2ccccc2)C(=O)O)CC1 [Form E, nateglinide]
- crystal form obtained upon drying ([1]; listed as E): convert to Form B
